# Where “and” joins values, the source holds several entries; their conditions need not be identical. Equal values may be shown once. Read-outs that look alike come from different tables or passages of the source.
# Experiments:
# ATP synthesis in BCG = type: cell-based, Mycobacterium bovis BCG
# M. tuberculosis H37Rv [1] = experiment: Checkerboard alamarBlue compound interaction assay; type: cell-based, Mycobacterium tuberculosis; details: for MIC: Mycobacterium tuberculosis, H37RV, drug alone, checkerboard; for FIC category / FIC index (∑FIC): combination of the named drug with DG70
# BCG = type: cell-based, Mycobacterium bovis BCG
# [2] = system: menaquinone biosynthesis (MenG); type: cell-based, Mycobacterium bovis BCG
# [3] = system: mycobacterial oxygen consumption; experiment: Oxygen consumption, methylene blue decolorization; type: cell-based; details: for effect of MK4 supplementation on inhibition of oxygen consumption: 400 µM MK4
# Klebsiella pneumoniae = experiment: MABA MIC; type: cell-based
# [4] = system: PcydAB promoter (cydAB operon) reporter; type: cell-based, Mycobacterium bovis BCG
# [5] = system: BCG overexpressing menG_F118L; type: cell-based; details: 20 µg/ml of DG70, 7 days, CFU
# [6] = system: M. tuberculosis mc^26206 in J774A.1 murine macrophages; type: cell-based; details: J774A.1 macrophages, 3 days, concentrations equivalent to in vitro MIC
# S. epidemis 14490 = experiment: MABA MIC; type: cell-based; details: Staphylococcus epidermidis
# M. bovis BCG = experiment: microbe, parasite or virus in culture; type: cell-based; details: Mycobacterium tuberculosis variant bovis BCG
# M. marinum = experiment: MABA MIC; type: cell-based; details: Mycobacterium marinum
# Bacillus cereus = experiment: MABA MIC; type: cell-based
# [7] = system: nontuberculous mycobacteria (NTM); experiment: organism not typed; type: cell-based
# Francisella philomiragia = experiment: microbe, parasite or virus in culture; type: cell-based
# M. abcessus = experiment: MABA MIC; type: cell-based, Mycobacterium abscessus; details: Mycobacteroides abscessus
# E. faecium = experiment: MABA MIC; type: cell-based; details: Enterococcus faecium
# M. tuberculosis H37Rv [8] = experiment: Microdilution alamarBlue assay (MABA) MIC; type: cell-based; details: Mycobacterium tuberculosis
# M. avium = experiment: MABA MIC; type: cell-based, Mycobacterium avium subsp. avium; details: Mycobacterium avium
# Legionella pneumophila = experiment: microbe, parasite or virus in culture; type: cell-based
# Brucella neotomae = experiment: microbe, parasite or virus in culture; type: cell-based
# E. cloacae = experiment: MABA MIC; type: cell-based; details: Enterobacter cloacae
# M. fortuitum = experiment: MABA MIC; type: cell-based, Mycobacterium fortuitum; details: Mycolicibacterium fortuitum
# Burkholderia cepacia = experiment: MABA MIC; type: cell-based
# Pseudomonas aeruginosa = experiment: MABA MIC; type: cell-based
# [9] = system: BCG::pMV306PHsp60 strains overexpressing menG; type: cell-based, Mycobacterium bovis BCG
# S. aureus MRSA = experiment: MABA MIC; type: cell-based; details: Staphylococcus aureus
# A. baumanii = experiment: MABA MIC; type: cell-based; details: Acinetobacter baumannii
# [10] = system: nonreplicating M. tuberculosis; type: cell-based, Mycobacterium tuberculosis; details: for reduction of CFU: 7 days, M. tuberculosis starved 6 weeks in PBS
# [11] = system: Yersinia pseudotuberculosis; experiment: microbe, parasite or virus in culture; type: cell-based
# in vitro [12] = details: African green monkey
# M. smegmatis = experiment: MABA MIC; type: cell-based, Mycobacterium smegmatis; details: Mycolicibacterium smegmatis
# in vitro [13] = details: mouse, microsomes
# [14] = system: menaquinone biosynthesis (MenG); type: cell-based, Mycobacterium bovis BCG; remark: listed apart in the source
# [15] = FIC of the anti-TB drug in combination with DG70
# [16] = anti-TB drug in combination with DG70
# [17] = Table S2, parent H37Rv, read-out: MIC in Mtb H37Rv
# [18] = whole-cell activity versus M. tuberculosis, […], read-out: MIC
structure (smiles),measurement,setting,value
"COc1nc2ccc(Br)cc2cc1[C@@H](c1ccccc1)[C@@](O)(CCN(C)C)c1cccc2ccccc12 [BDQ, bedaquiline]",effect of MK4 supplementation on inhibition of ATP synthesis,ATP synthesis in BCG,failed to reverse
same,FIC,M. tuberculosis H37Rv [1]; [15],0.4
same,MIC,M. tuberculosis H37Rv [1],0.39 µM
same,MIC In combination,M. tuberculosis H37Rv [1]; [16],0.16 µM
same,FIC category,M. tuberculosis H37Rv [1],"synergistic (≤0.5, synergistic)"
same,FIC index (∑FIC),M. tuberculosis H37Rv [1],0.5
same,killing (drop in CFU) over 21 days,BCG,5 log10
same,killing in 4 days,BCG,less than 1 log10
same,time of treatment to sterile cultures (no CFU detected),BCG,21 days
same,[14C]methyl incorporation into menaquinone,[2],no such effect
same,effect of MK4 supplementation on inhibition of oxygen consumption,[3],failed to reverse
"COc1ccc(-c2cc(NC(=O)c3ccc(F)cc3Cl)ccc2OC)cc1 [DG70, 2-chloro-N-(4',6-dimethoxy-[1,1'-biphenyl]-3-yl)-4-fluorobenzamide]",MIC,Klebsiella pneumoniae,> 20 µg/mL
same,peak PcydAB induction,[4],3.1 fold
same,growth inhibition of strain overexpressing menG_F118L,[5],completely resistant
same,intracellular M. tuberculosis growth in macrophages,[6],inhibited intracellular M. tuberculosis growth
same,MIC,S. epidemis 14490,> 20 µg/mL
same,MIC,M. bovis BCG,2.4 µg/mL
same,MIC,M. marinum,> 40 µg/mL
same,MIC,Bacillus cereus,> 40 µg/mL
same,effect of MK4 supplementation on inhibition of ATP synthesis,ATP synthesis in BCG,rescued
same,intracellular ATP levels,ATP synthesis in BCG,significant decrease in ATP levels
same,MIC,[7],> 100 µM
same,activity against NTM and other bacteria,[7],lacked activity
same,MIC,Francisella philomiragia,> 40 µg/mL
same,MIC,M. abcessus,> 40 µg/mL
same,MIC,E. faecium,> 20 µg/mL
same,MIC In combination,M. tuberculosis H37Rv [1]; DG70 in combination with BDQ,1.5 µM
same,MIC In combination,M. tuberculosis H37Rv [1]; DG70 in combination with EMB,1.5 µM
same,MIC In combination,M. tuberculosis H37Rv [1]; DG70 in combination with INH,3.12 µM
same,MIC In combination,M. tuberculosis H37Rv [1]; DG70 in combination with PA824,0.35 µM
same,MIC In combination,M. tuberculosis H37Rv [1]; DG70 in combination with RIF,3.1 µM
same,MIC In combination,M. tuberculosis H37Rv [1]; DG70 in combination with THZ,3.12 µM
same,FIC,M. tuberculosis H37Rv [1]; FIC of DG70 in combination with BDQ,0.1
same,FIC,M. tuberculosis H37Rv [1]; FIC of DG70 in combination with EMB,0.12
same,FIC,M. tuberculosis H37Rv [1]; FIC of DG70 in combination with INH,0.2
same,FIC,M. tuberculosis H37Rv [1]; FIC of DG70 in combination with PA824,0.03
same,FIC,M. tuberculosis H37Rv [1]; FIC of DG70 in combination with RIF,0.25
same,FIC,M. tuberculosis H37Rv [1]; FIC of DG70 in combination with THZ,0.2
same,MIC,M. tuberculosis H37Rv [1],12.5 µM
same,MIC90,"M. tuberculosis H37Rv [8]; H37Rv + 400 µM MK4, read-out: MIC90",9.6 µg/mL
same,MIC90,"M. tuberculosis H37Rv [8]; H37Rv, lab strain, […], read-out: MIC90",4.8 µg/mL
same,MIC,"M. tuberculosis H37Rv [8]; M. tuberculosis (Table S1), read-out: MIC",4.8 µg/mL
same,MIC,M. tuberculosis H37Rv [8]; [17],2.4 µg/mL
same,MIC,M. tuberculosis H37Rv [8]; [18],2.4 µg/mL
same,MIC,M. avium,> 40 µg/mL
same,MIC,Legionella pneumophila,> 40 µg/mL
same,effect of MK4 pretreatment on bactericidal activity,BCG,could be reversed
same,killing (drop in CFU) over 21 days,BCG,5 log10
same,killing in 4 days,BCG,less than 1 log10
same,reduction of cultures after 2 days of treatment,BCG,≤ 1 log10
same,MIC,Brucella neotomae,> 40 µg/mL
same,MIC,E. cloacae,> 20 µg/mL
same,MIC,M. fortuitum,> 40 µg/mL
same,MIC,Burkholderia cepacia,> 40 µg/mL
same,MIC,Pseudomonas aeruginosa,> 20 µg/mL
same,increase of DG70 MIC on overexpression of menG,[9],4 ×
same,MIC,S. aureus MRSA,> 20 µg/mL
same,[14C]methyl incorporation into menaquinone,[2],complete suppression
same,MIC,A. baumanii,> 20 µg/mL
same,effect of MK4 on killing of nutrient-deprived M. tuberculosis,[10]; 400 µM MK4,reversed
same,reduction of CFU,[10]; 5× MIC,4 log10
same,reduction of CFU,[10]; 10× MIC,6.5 log10
same,MIC,[11],> 40 µg/mL
same,oxygen consumption (methylene blue decolorization at 665 nm),[3],strongly prevented decolorization of methylene blue
same,effect of MK4 supplementation on inhibition of oxygen consumption,[3],rescued
same,CC50,"in vitro [12]; 50% cytotoxic concentration (CC50), Vero cells",> 77 µg/mL
same,CC50,"in vitro [12]; CC50, Vero cells, 48 h, MTT",> 80 µg/mL
same,MIC,M. smegmatis,> 40 µg/mL
same,microsomal CLint,in vitro [13],921 µL/min/mg
"CC[C@@H](CO)NCCN[C@@H](CC)CO [EMB, ethambutol]",FIC,M. tuberculosis H37Rv [1]; [15],0.5
same,MIC,M. tuberculosis H37Rv [1],6.25 µM
same,MIC In combination,M. tuberculosis H37Rv [1]; [16],3.12 µM
same,FIC category,M. tuberculosis H37Rv [1],"additive (>0.5 to ≤1, additive)"
same,FIC index (∑FIC),M. tuberculosis H37Rv [1],0.6
"NNC(=O)c1ccncc1 [INH, isoniazid]",MIC90,M. bovis BCG,0.05 µg/mL
same,FIC,M. tuberculosis H37Rv [1]; [15],0.2
same,MIC,M. tuberculosis H37Rv [1],0.39 µM
same,MIC In combination,M. tuberculosis H37Rv [1]; [16],0.09 µM
same,FIC category,M. tuberculosis H37Rv [1],"synergistic (≤0.5, synergistic)"
same,FIC index (∑FIC),M. tuberculosis H37Rv [1],0.4
same,MK9/DMK9,[14],3.8 and 2.9
same,MIC90,M. tuberculosis H37Rv [8],0.05 µg/mL
same,regrowth after,BCG,7 days
same,time of treatment to sterile cultures (no CFU detected),BCG,10 days
same,[14C]methyl incorporation into menaquinone,[2],no such effect
same,day by which cultures were completely sterilized,[10],≤ 10 days
same,oxygen consumption (methylene blue decolorization at 665 nm),[3],clearly decolorized methylene blue
COc1ccc(-c2cccc(NC(=O)c3ccc(F)cc3Cl)c2)cc1 [JSF-2907],MIC,M. tuberculosis H37Rv [8]; [17],> 77 µg/mL
same,MIC,M. tuberculosis H37Rv [8]; [18],> 77 µg/mL
same,CC50,in vitro [12],50 µg/mL
COc1ccc(-c2cc(NC(=O)c3ccccc3Cl)ccc2OC)cc1 [JSF-2908],MIC,M. tuberculosis H37Rv [8]; [17],4.8 µg/mL
same,MIC,M. tuberculosis H37Rv [8]; [18],4.8 µg/mL
same,CC50,in vitro [12],50 µg/mL
COc1ccc(-c2cc(NC(=O)c3ccc(F)cc3)ccc2OC)cc1 [JSF-2909],MIC,M. tuberculosis H37Rv [8]; [17],> 77 µg/mL
same,MIC,M. tuberculosis H37Rv [8]; [18],> 77 µg/mL
same,CC50,in vitro [12],> 50 µg/mL
O=C(Nc1cccc(-c2ccccc2)c1)c1ccc(F)cc1Cl [JSF-2910],MIC,M. tuberculosis H37Rv [8]; [17],9.6 µg/mL
same,MIC,M. tuberculosis H37Rv [8]; [18],9.6 µg/mL
same,CC50,in vitro [12],> 50 µg/mL

# Reference: PMC5312080 (mBio, 2017)
